Key:
[1] = Mean surviving fraction of V79 cells following a 12-Gy dose of radiation.; type: functional, Cricetulus griseus
[2] = Mean surviving fraction of V79 cells following a 1-h exposure to H2O2.; type: functional, Cricetulus griseus
V79 [3] = settings: Cricetulus griseus
V79 [4] = settings: Cricetulus griseus; remark: listed apart in the source
[5] = Compound was evaluated for mean surviving fraction of Chinese hamster V79 cells following a 1-h exposure to H2O2.; type: functional, Cricetulus griseus
[6] = Compound was evaluated for mean surviving fraction of Chinese hamster V79 cells following a 12-Gy dose of radiation.; type: functional, Cricetulus griseus

Compound `CC1(C)CC(=O)C(C)(C)N1O` has a Radiation prot [1] of 1 and an H2O2 prot [2] of 1.1.

Work on `CC1(C)C=C(CNCc2ccccc2)C(C)(C)N1[O]` yielded a Radiation prot (V79 [3]) of 5.2 and an H2O2 prot (V79 [4]) of 2.

For `CC1(C)CCCC(C)(C)N1O`, the Radiation prot [1] was 0.68 and the H2O2 prot [2] was 1.5.

With `CC1(C)CC(C(N)=O)C(C)(C)N1[O]` (stereo not given) the Radiation prot [1] was 11.2 and the H2O2 prot [2] was 1.7.

`CC1(C)C=C(CN2CCCCC2)C(C)(C)N1O` gave a Radiation prot [1] of 30.

For `CC1(C)C=C(CCNC(=N)N)C(C)(C)N1[O]`, the Radiation prot (V79 [3]) was 1.

For `CCOCC1=CC(C)(C)N([O])C1(C)C`, the H2O2 prot (V79 [4]) was 1.3.

`CC1(C)C=C(CNC2CCCCC2)C(C)(C)N1[O]` showed a Radiation prot (V79 [3]) of 4.4.

`CC1(C)CC(=O)C(C)(C)N1[O]` gave a Radiation prot (V79 [3]) of 10.2 and an H2O2 prot (V79 [4]) of 0.9.

`CC1(C)C=C(CN2CCCC2)C(C)(C)N1O` showed a Radiation prot [1] of 28.3.

In the case of `CC1(C)C=C(CNC23CC4CC(CC(C4)C2)C3)CC(C)(C)N1O`, the H2O2 prot [2] is reported as 2.1.

`CN(C)CCCNC(=O)C1=CC(C)(C)N([O])C1(C)C` gave a Radiation prot (V79 [3]) of 15.

In the case of `CC1(C)CC(O)CC(C)(C)N1`, the Radiation prot [1] is reported as 0.9 and the H2O2 prot [2] is reported as 0.4.

Compound `CC1=[N+]([O-])C(C)CC1` (stereo not given) has a Radiation prot [1] of 0.91 and an H2O2 prot [2] of 1.1.

`CC1(C)C=C(CC[Se]C(=N)N)C(C)(C)[NH+]1[O-]` (stereo not given) showed an H2O2 prot [2] of 1.3.

For `CC(=O)NC1CC(C)(C)N(O)C(C)(C)C1`, the Radiation prot [1] was 0.85 and the H2O2 prot [2] was 1.8.

`CC1(C)CCCC(C)(C)N1[O]` showed a Radiation prot [1] of 4.2 and an H2O2 prot [2] of 3.5.

Work on `CCN(CC)CC1=CC(C)(C)N(O)C1(C)C` yielded a Radiation prot [1] of 0.96.

`CC1(C)CCC(C)(C)N1O` showed an H2O2 prot [5] of 2.3 and a Radiation prot [6] of 0.7.

With `CC(C)(C)NCC1=CC(C)(C)N([O])C1(C)C` the Radiation prot (V79 [3]) was 19.3 and the H2O2 prot (V79 [4]) was 2.

With `CC1(C)C=C(CN2Cc3ccccc3C2)C(C)(C)N1[O]` the Radiation prot (V79 [3]) was 3.9.

For `CC(=O)C1=CC(C)(C)NC1(C)C`, the Radiation prot [1] was 0.63 and the H2O2 prot [2] was 1.3.

In the case of `CC1(C)C=C(C(N)=O)C(C)(C)N1[O]`, the Radiation prot (V79 [3]) is reported as 10.7 and the H2O2 prot (V79 [4]) is reported as 1.

With `CN(C)CC1=CC(C)(C)NC1(C)C` the Radiation prot [1] was 0.95.

With `CC1(C)C=C(C(=O)NCCCN)C(C)(C)N1O` the H2O2 prot [2] was 1.

For `CCOC1CC(C)(C)N(O)C(C)(C)C1`, the H2O2 prot [2] was 1.6.

Work on `CN(CC1=CC(C)(C)N([O])C1(C)C)Cc1ccccc1` yielded an H2O2 prot (V79 [4]) of 2.

`CC1(C)C=C(C(=O)NCCCO)C(C)(C)N1[O]` showed an H2O2 prot (V79 [4]) of 1.1.

`CC1(C)C=C(CN2CCCCC2)C(C)(C)N1` showed a Radiation prot [1] of 0.95.

Compound `CC1(C)C=C(CN2CCCCC2)C(C)(C)N1[O]` has a Radiation prot (V79 [3]) of 19.1.

For `CC1(C)C=C(C=O)C(C)(C)N1`, the Radiation prot [1] was 0.07 and the H2O2 prot [2] was 0.9.

With `CC1(C)C=C(NC(N)=O)C(C)(C)N1[O]` the H2O2 prot (V79 [4]) was 1.2.

`CN(C)CC1=CC(C)(C)N(O)C1(C)C` gave a Radiation prot [1] of 16.

Compound `CC1(C)C=C(CCSC(=N)N)C(C)(C)N1[O]` has a Radiation prot (V79 [3]) of 7.5 and an H2O2 prot (V79 [4]) of 2.2.

In the case of `CCCC[N+](CCCC)(CCCC)CC1=CC(C)(C)N([O])C1(C)C`, the Radiation prot (V79 [3]) is reported as 0.69 and the H2O2 prot (V79 [4]) is reported as 1.1.

`CC1(C)C=C(C(=O)NCCCN2C(=O)c3ccccc3C2=O)C(C)(C)N1O` gave a Radiation prot [1] of 1.3 and an H2O2 prot [2] of 2.2.

Compound `CC1(C)CC(C(=O)O)C(C)(C)N1[O]` (stereo not given) has an H2O2 prot [2] of 1.

`CC1(C)C=C(C=O)C(C)(C)N1[O]` showed a Radiation prot (V79 [3]) of 2.7 and an H2O2 prot (V79 [4]) of 1.3.

`CC1(C)C=C(CO)C(C)(C)N1O` gave a Radiation prot [1] of 0.92 and an H2O2 prot [2] of 3.1.

`CC1(C)C=C(C=O)CC(C)(C)N1` showed a Radiation prot [1] of 0.4.

In the case of `CC1=[N+]([O-])C(C)(C)CC1`, the Radiation prot [1] is reported as 1.1 and the H2O2 prot [2] is reported as 0.8.

For `CC1(C)C=C(CNC23CC4CC(CC(C4)C2)C3)C(C)(C)N1[O]`, the H2O2 prot (V79 [4]) was 3.3.

For `CC1(C)CC(CO)C(C)(C)N1[O]` (stereo not given), the Radiation prot (V79 [3]) was 4.7 and the H2O2 prot (V79 [4]) was 1.1.

For `CC1(C)CC(C(=O)NCCCN2C(=O)c3ccccc3C2=O)C(C)(C)N1O` (stereo not given), the Radiation prot [1] was 1.26.

`CC1(C)CC(CN)C(C)(C)N1[O]` (stereo not given) gave a Radiation prot [1] of 13.7 and an H2O2 prot [2] of 0.7.

Work on `CN1C(C)(C)C=C(C=O)C1(C)C` yielded a Radiation prot [1] of 0.6.

`CCOC1CC(C)(C)N([O])C(C)(C)C1` showed an H2O2 prot (V79 [4]) of 1.9.

For `CC1(C)C=C(CN2CCCC2)C(C)(C)N1[O]`, the Radiation prot (V79 [3]) was 21.4.

For `CCOCC1=CC(C)(C)N(O)C1(C)C`, the H2O2 prot [2] was 3.2.

With `CC1(C)C=C(CNC23CC4CC(CC(C4)C2)C3)C(C)(C)N1` the Radiation prot [1] was 1.4 and the H2O2 prot [2] was 1.9.

Compound `CC1(C)CC(O)C(C)(C)N1[O]` (stereo not given) has a Radiation prot (V79 [3]) of 2.9 and an H2O2 prot (V79 [4]) of 1.4.

With `CCN(CC)CC1=CC(C)(C)N([O])C1(C)C` the Radiation prot (V79 [3]) was 17.2.

For `CC1(C)C=C(C(=O)NCCCN)C(C)(C)N1[O]`, the H2O2 prot (V79 [4]) was 1.1.

For `CC1(C)C=C(C=O)CC(C)(C)N1O`, the Radiation prot [1] was 1.5.

`COC(=O)C1=CC(C)(C)N([O])C1(C)C` showed a Radiation prot (V79 [3]) of 0.94 and an H2O2 prot (V79 [4]) of 1.5.

For `CC1(C)C=C(C(=O)NCCCN)C(C)(C)N1`, the Radiation prot [1] was 0.52.

With `CC1(C)CC(NS(C)(=O)=O)CC(C)(C)N1O` the Radiation prot [1] was 0.77.

Compound `CC1(C)C=C(C=O)CC(C)(C)N1[O]` has a Radiation prot (V79 [3]) of 6.1 and an H2O2 prot (V79 [4]) of 0.8.

`CC1(C)C=C(C(=O)NCCO)C(C)(C)N1[O]` gave an H2O2 prot (V79 [4]) of 1.2.

With `CC1(C)CC(O)CC(C)(C)N1[O]` [TEMPOL] the Radiation prot [1] was 5.1 and the H2O2 prot [2] was 2.5.

With `CC1(C)CCC=[N+]1[O-]` the Radiation prot [1] was 0.93 and the H2O2 prot [2] was 0.9.

With `CCCCN(CCCC)CC1=CC(C)(C)N([O])C1(C)C` the H2O2 prot (V79 [4]) was 3.2.

Compound `CC1(C)CCC(C)(C)N1[O]` has a Radiation prot [1] of 4.6 and an H2O2 prot [2] of 0.9.

With `CC(=O)C1=CC(C)(C)N([O])C1(C)C` the Radiation prot [1] was 4.8.

With `CC1(C)CC(O)CC(C)(C)N1O` [TEMPOL HYDROXYLAMINE] the Radiation prot [1] was 1.05.

In the case of `CC1(C)C=C(C[P+](c2ccccc2)(c2ccccc2)c2ccccc2)C(C)(C)N1[O]`, the Radiation prot (V79 [3]) is reported as 0.72.

With `CC(=O)C1=CC(C)(C)N(O)C1(C)C` the Radiation prot [1] was 0.15 and the H2O2 prot [2] was 2.7.

Work on `CC1(C)CC(=O)CC(C)(C)N1` yielded a Radiation prot [1] of 1.1 and an H2O2 prot [2] of 0.5.

Compound `CC1(C)CC(N)CC(C)(C)N1O` has a Radiation prot [1] of 1.1 and an H2O2 prot [2] of 1.

With `CC1(C)CC(NC2CC(C)(C)N(O)C(C)(C)C2)CC(C)(C)N1O.Cl` the Radiation prot [1] was 1.4 and the H2O2 prot [2] was 1.9.

`CC1(C)CC(=O)CC(C)(C)N1O` gave a Radiation prot [1] of 0.68.

`CC1(C)C=C(C(=O)NCC(=O)O)C(C)(C)N1[O]` showed a Radiation prot (V79 [3]) of 0.98 and an H2O2 prot (V79 [4]) of 0.9.

Work on `CCCCN(CCCC)C1CC(C)(C)N([O])C(C)(C)C1` yielded an H2O2 prot (V79 [4]) of 2.9.

For `CC[N+](CC)(CC)CC1=CC(C)(C)N([O])C1(C)C`, the Radiation prot (V79 [3]) was 1.2.

For `CC(C)(C)NCC1=CC(C)(C)N(O)C1(C)C`, the Radiation prot [1] was 1.2 and the H2O2 prot [2] was 2.1.

`CC1(C)C=C(CNC23CC4CC(CC(C4)C2)C3)C(C)(C)N1O` gave a Radiation prot [1] of 1.8 and an H2O2 prot [2] of 2.5.

Compound `CC1(C)CC(N)CC(C)(C)N1[O]` [TEMPAMINE] has a Radiation prot [1] of 18.5 and an H2O2 prot [2] of 2.8.

For `CC1(C)CC(N)C(C)(C)N1[O]` (stereo not given), the Radiation prot [1] was 12.9 and the H2O2 prot [2] was 1.1.

For `CC1(C)C=C(CN2C(=O)c3ccccc3C2=O)C(C)(C)N1O`, the Radiation prot [1] was 0.49 and the H2O2 prot [2] was 3.3.

For `CN(C)CC1=CC(C)(C)N([O])C1(C)C`, the Radiation prot (V79 [3]) was 13.9 and the H2O2 prot (V79 [4]) was 2.1.

For `CC1(C)C=C(CN2CCCC2)C(C)(C)N1`, the Radiation prot [1] was 0.34 and the H2O2 prot [2] was 1.

`CC1(C)C=C(C(=O)NCCCN2C(=O)c3ccccc3C2=O)C(C)(C)N1` showed a Radiation prot [1] of 1.9 and an H2O2 prot [2] of 1.1.

In the case of `CN(CC1=CC(C)(C)N(O)C1(C)C)C12CC3CC(CC(C3)C1)C2`, the H2O2 prot [2] is reported as 2.6.

With `CC1(C)CC(=O)CC(C)(C)N1[O]` the Radiation prot [1] was 7.1 and the H2O2 prot [2] was 1.1.

In the case of `CCCCNCC1=CC(C)(C)N([O])C1(C)C`, the Radiation prot (V79 [3]) is reported as 3.96 and the H2O2 prot (V79 [4]) is reported as 2.5.

Compound `CC1(C)C=C(CO)C(C)(C)N1[O]` has a Radiation prot (V79 [3]) of 2.6 and an H2O2 prot (V79 [4]) of 1.8.

In the case of `CC1(C)C=C(C(=O)O)C(C)(C)N1[O]`, the H2O2 prot [2] is reported as 1.

Compound `CC1(C)CC(N2C(=O)c3ccccc3C2=O)CC(C)(C)N1O` has an H2O2 prot [2] of 1.5.

`CC1(C)C=C(CO)C(C)(C)N1` gave a Radiation prot [1] of 1.5 and an H2O2 prot [2] of 0.9.

For `CC1(C)CC(N2C(=O)c3ccccc3C2=O)CC(C)(C)N1`, the Radiation prot [1] was 1.7 and the H2O2 prot [2] was 0.8.

In the case of `CN(CC1=CC(C)(C)N([O])C1(C)C)C12CC3CC(CC(C3)C1)C2`, the H2O2 prot (V79 [4]) is reported as 3.3.

In the case of `CC1(C)C=C(C=O)C(C)(C)N1O`, the Radiation prot [1] is reported as 0.13 and the H2O2 prot [2] is reported as 2.7.
